Source: patent US20180371021A1, “PEPTIDOMIMETIC MACROCYCLES AND USES THEREOF” (Aileron Therapeutics, Inc., priority 2017, published 2018)
Values joined by “and” are separate entries in the source; they are usually repeats but may differ in a detail not shown here. Equal values may be shown once. “Also recorded” adds a separate entry of the source.

Key:
[1] = tested on: A549 xenograft; test: A549 xenograft model, AP1 and palbociclib; format: in vivo, mice
Text: The arrows indicate spontaneous tumor shrinkage in vehicle controls. The arrows with * indicate poor growth of tumors late in the study.

[2] = tested on: peripheral T-Cell Lymphoma (PTCL); test: Phase 2a clinical trial with AP1 in peripheral T-cell lymphoma; format: in vivo, human
Procedure: Based on the results of the dose-escalation study and the complete response observed in a patient with PTCL, a Phase 2a clinical trial was conducted in patients with PTCL.

[3] = tested on: MCF-7 cells; test: MCF-7 cell proliferation (WST-1 / CyQUANT), AP1 and CDK4/CDK6 inhibitors; format: cell-based, human; settings: sequential treatment, 24 h pre-treatment
Procedure: The WST-1 variant of the MTT assay was used to measure cell viability. WST-1 is a cell-impermeable, sulfonated tetrazolium salt that can be used to examine cell viability without killing the cells. […] All media were supplemented with 10% (v/v) fetal calf serum, 100 units of penicillin, and 100 μg/mL of streptomycin at 37° C. and 5% CO2. Prior to dosing, MCF-7 cells were switched to serum-free medium and grown at 37° C. overnight. One day prior to assaying, the cells were trypsinized, counted, and seeded at pre-determined densities in 96-well plates as follows: MCF-7, 5000 cells/well/200 μL; MOLT-3, 30,000 cells/well/200 μL.
The concentration of ribociclib was kept constant.
The concentration of abemaciclib was kept constant.
Various MCF-7 cell numbers were plated and evaluated 3-7 days after plating to determine the optimal number of cells to be plated and to determine the treatment duration. […] MCF-7 cells were evaluated for viability using the WST-1 assay or the CyQUANT method 3-7 days or 120 h after beginning treatment.
The cells were evaluated for viability using the CyQUANT method after beginning the simultaneous treatments.
The cells were evaluated for viability using a WST-1 assay or MTT assay 3-7 days after beginning the treatments.
The data are expressed as log(CI).

[4] = tested on: MIC-1; test: Phase 1 dose-escalation trial of AP1: plasma MIC-1 biomarker; format: in vivo, human; settings: plasma MIC-1 after end of AP1 infusion
Procedure: Depending on the sample type, the PD biomarkers included measures of MDMX, MDM2, p21, p53, apoptosis, macrophage inhibitory cytokine 1, or MIC-1.
In the Phase 1 dose-escalation study, plasma MIC-1 levels were measured at several time points after initial infusion.

[5] = tested on: human CD45 leukemic cells; test: Survival in an in vivo xenotransplantation model; set-up: species or system mice; settings: for Long term survival, mice still alive: 130 days post start of treatment
Text: The median survival for group 1 and group 2 was 34 days and 83 days, respectively (p<0.0001).

[6] = tested on: advanced solid tumors or lymphomas expressing WT p53; test: Phase 1 dose-escalation trial of AP1: anti-tumor activity (RECIST / IWG); format: in vivo, human
Procedure: Anti-tumor activity was measured using Response Evaluation Criteria in Solid Tumors (RECIST) criteria for patients with solid tumors, and 2015 International Working Group (IWG) criteria for patients with lymphomas. The RECIST and IWG criteria enabled the objective evaluation of whether a tumor had progressed, stabilized, or decreased in size. Anti-tumor effects were also determined through physical examinations or clinically validated blood or serum tumor markers.
Anti-tumor activity was measured using RECIST criteria for patients with solid tumors and the IWG criteria for patients with lymphomas to objectively evaluate whether a tumor progressed, stabilized, or shrunk.
The percent change in tumor volume for each evaluable patient (i.e., having measurable disease by CT or PET-CT scan) is plotted from the highest to lowest value, or low to high response, and each bar of the histogram is colored by the best overall response measured for that patient per RECIST or IWG criteria.

[7] = Phase 1 dose-escalation trial of AP1: pharmacokinetic profile; format: in vivo, human; settings: patients, I.V. infusion
Text: Data were collected at different time points after the start of infusion (SOI) and the end of infusion (EOI).

[8] = Phase 1 dose-escalation trial of AP1: safety and tolerability; format: in vivo, human
Text: 71 patients were enrolled in the dose-escalation trial. The trial used a “3+3” dose-escalation design.
Starting with dose level 4, patients who had cancers associated with HPV were excluded from enrollment because HPV is known to destroy WT p53.
FIG. 2 illustrates the dosing regiments (DRs) used in the “3+3” dose escalation trial.
Eight patients experienced dose reductions, including two patients who had been on study treatment for over 1 year, and another patient who had been on study treatment for 11 months. […] Both events were Grade 3 hypotension and were at the 3.1 mg/kg and the 4.4 mg/kg once-weekly dosing levels. […] Five patients discontinued treatment with AP1 due to these events.

[9] = tested on: Acute Myeloid Leukemia (AML) or Myelodysplastic Syndrome (MDS), expressing WT p53; test: Clinical study of AP1 alone or with cytarabine in AML or MDS; format: in vivo, human; settings: evaluable patients with bone marrow biopsies before and after dosing
[10] = tested on: SJSA-1 osteosarcoma xenograft; test: SJSA-1 osteosarcoma xenograft model, AP1 and palbociclib; format: in vivo, mice; settings: AP1 20 mg/kg qwkx4, palbociclib 75 mg/kg qdx22
Procedure: (§1) The group was not euthanized, and the mice were allowed to recover. […] Animals were monitored individually. […] Responders were followed for a longer period of time. When the endpoint was reached, the animals were euthanized. […] An aqueous phosphate-buffered saline solution or sodium lactate (50 mM, pH 4.0) solution was used as the vehicle.

[11] = tested on: MCF-7.1 human breast carcinoma xenograft; test: MCF-7.1 human breast carcinoma xenograft model, AP1 and palbociclib; format: in vivo, mice; settings: AP1 20 mg/kg qwkx4, palbociclib 75 mg/kg qdx22
Procedure: as §1, with “Female athymic nude mice were provided with drinking water with 10 μg/mL with 17 beta estradiol supplementation 3 days prior to cell implantation and for the duration of the study. […] The mice were between 8-12 weeks of age at the beginning of the study. […] The” for “The”

[12] = d22, calculated using vehicle median volumes on d0 and d22
[13] = three consecutive measurements > 150% of d1 volume

CC(=O)N[C@@H](CC(C)C)C(=O)N[C@H](C(=O)N[C@@H](Cc1ccccc1)C(=O)N[C@]1(C)CCCCCCC=CCCC[C@@](C)(C(=O)N[C@@H](C)C(=O)N[C@@H](C)C(=O)N[C@@H](C)C(=O)N[C@@H](C)C(=O)N[C@@H](C)C(=O)N[C@H](C)C(N)=O)NC(=O)[C@H](CC(C)C)NC(=O)[C@H](CCC(N)=O)NC(=O)[C@H](C)NC(=O)[C@H](Cc2c[nH]c3ccccc23)NC(=O)[C@H](Cc2ccc(O)cc2)NC(=O)[C@H](CCC(=O)O)NC1=O)[C@@H](C)O [AP1]
Median time to tumor volume > 500 mm^3 ([1]; A549 xenograft, AP1 20 mg/kg qwkx4): 25 days | Median tumor volume (mm^3) D1 ([1]; D1 (start of dosing), A549 xenograft, nude mice, AP1 20 mg/kg qwkx4, palbociclib 75 mg/kg qdx22): 126 mm^3 | Median tumor volume (mm^3) D22 ([1]; D22, A549 xenograft, nude mice, AP1 20 mg/kg qwkx4, palbociclib 75 mg/kg qdx22): 405 mm^3 | % TGI (±SEM) on d22 (end of dosing) ([1]; d22, calculated using vehicle median volumes on d0 and d22, AP1 20 mg/kg qwkx4, palbociclib 75 mg/kg qdx22): 42 (7) % | Animals with disease progression ([1]; three consecutive measurements > 150% of d1 volume, AP1 20 mg/kg qwkx4, palbociclib 75 mg/kg qdx22): 10/10 | animals have reached endpoint ([1]; tumor volume > 500 mm^3, A549 xenograft, AP1 20 mg/kg qwkx4, palbociclib 75 mg/kg qdx22): 8/10 animals | response of the first patient enrolled in the Phase 2 study in PTCL ([2]; after 2 cycles of treatment): partial response | Best overall response ([2]; seven PTCL patients on AP1 therapy, one line per patient (patient 1 from dose escalation)): ODP | Days on treatment ([2]; seven PTCL patients on AP1 therapy, one line per patient (patient 1 from dose escalation), Dose escalation study): 487 days | Days on treatment ([2]; seven PTCL patients on AP1 therapy, one line per patient (patient 1 from dose escalation), Phase 2a study): 32 days and 1 days and 122 days and 134 days and 66 days and 53 days | MCF-7 cell growth [3]: suppressed MCF-7 cell growth with or without treatment with palbociclib | doses achieving a maximal 24 hr MIC-1 increase above baseline [4]: ≥ 2.1 mg/kg | Long term survival, mice still alive ([5]; group 2): 22% | Long term survival, mice still alive ([5]; group 3): 60% | median survival ([5]; group 2 (group 1: 34 days), p<0.0001): 83 days | overall survival ([5]; vs vehicle): doubled the overall survival | responses with stabilization of tumor size (SDs) ([6]; 57 evaluable patients): 21 | stable diseased patients that exhibited tumor shrinkage ([6]; 57 evaluable patients): 7 | patient scans of the two CR patients ([6]; PTCL patient after six cycles, MCC patient after further treatment): the lymph node returned to its normal size; also recorded: showed no trace of cancer in the patient | max time a patient received AP1 ([6]; one patient): 613 days | maximum drug serum concentrations observed (Cmax) ([7]; all dose levels): dose-related increase | half-lives ([7]; higher dose levels): five and seven | dose limiting toxicity (DLT) ([8]; 3.1 mg/kg once weekly dosing): One dose limiting toxicity (DLT) of Grade 3 fatigue | dose limiting toxicity (DLT) ([8]; […] once weekly): four DLTs (Grade 3 elevated alkaline phosphatase, Grade 3 hypotension, Grade 3 anemia, Grade 4 neutropenia) | patients with transient decreases in lymphocytes post-dosing and primarily Grade 1 and 2 abnormalities ([8]; full recovery within a few days): approximately 50% | MTD ([8]; human, in vivo, iv, dosed once a week by I.V. administration, patients): 3.1 mg/kg | tolerability as considered by the investigators ([8]; patients, dose escalation trial): generally well tolerated | most frequently reported drug-related events ([8]; reported by ≥10% of the patients): nausea, fatigue, vomiting, decreased appetite, anemia, headache, and constipation | patients who demonstrated stabilization of their disease [9]: 3 | Median tumor volume (mm^3) D1 ([10]; D1 (start of dosing), SJSA-1 xenograft, nude mice): 117 mm^3 | Median tumor volume (mm^3) D22 ([10]; D22, SJSA-1 xenograft, nude mice): 2150 mm^3 | Median time to tumor volume > 1000 mm^3 ([10]; SJSA-1 xenograft): 16 days | Median time to tumor volume > 2000 mm^3 ([10]; SJSA-1 xenograft): 21 days | % TGI (±SEM) on d22 (end of dosing) [10, 12]: 17 (6) % | Animals with disease progression [10, 13]: 10/10 | Median tumor volume (mm^3) D1 ([11]; D1 (start of dosing), MCF-7.1 xenograft, nude mice): 126 mm^3 | Median tumor volume (mm^3) D22 ([11]; D22, MCF-7.1 xenograft, nude mice): 473 mm^3 | Median time to tumor volume > 500 mm^3 ([11]; MCF-7.1 xenograft): 22 days | Median time to tumor volume > 1000 mm^3 ([11]; MCF-7.1 xenograft): 35 days | % TGI (±SEM) on d22 (end of dosing) [11, 12]: 30 (9) % | animals have reached endpoint ([11]; endpoint tumor volume > 1000 mm^3, MCF-7.1 xenograft): 10/10 animals | Animals with disease progression [11, 13]: 10/10
